Values joined by “and” are separate entries in the source; they are usually repeats but may differ in a detail not shown here. Equal values may be shown once.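 48-hour exposure; five concentrations; linearly interpolated endpoints. GI50 marks 50% less growth.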 Active and inactive are the calls of the source. Rule as the data show it: active = GI50 up to about 1.1 µM and inactive = higher.
Assays:
Test in all cases: NCI anticancer screen, dose series, 48 h
UACC-62 = system: UACC-62
A549 = system: A549
HL-60 = system: HL-60
HT-29 = system: HT-29
SK-MEL-5 = system: SK-MEL-5
IGROV-1 = system: IGROV-1
786-0 = system: 786-0
HCC 2998 = system: HCC 2998
SF-539 = system: SF-539
EKVX = system: EKVX
KM12 = system: KM12
HOP-92 = system: HOP-92
OVCAR-3 = system: OVCAR-3
SN12C = system: SN12C
MOLT-4 = system: MOLT-4
UACC-257 = system: UACC-257
RXF 393 = system: RXF 393
SW-620 = system: SW-620
SF-295 = system: SF-295
NCI-H23 = system: NCI-H23
LXFL 529 = system: LXFL 529
SK-MEL-28 = system: SK-MEL-28
UO-31 = system: UO-31
SR = system: SR
DLD-1 = system: DLD-1
SK-OV-3 = system: SK-OV-3
SK-MEL-2 = system: SK-MEL-2
HOP-62 = system: HOP-62
SF-268 = system: SF-268
HCT-116 = system: HCT-116
DMS-114 = system: DMS-114
ACHN = system: ACHN
A498 = system: A498
K562 = system: K562
OVCAR-4 = system: OVCAR-4
Malme-3M = system: Malme-3M
M14 = system: M14
OVCAR-8 = system: OVCAR-8
DMS-273 = system: DMS-273
HOP-18 = system: HOP-18
RXF 631 = system: RXF 631
NCI-H522 = system: NCI-H522
U-251 = system: U-251
LOX IMVI = system: LOX IMVI
OVCAR-5 = system: OVCAR-5
M19-MEL = system: M19-MEL
CCRF-CEM = system: CCRF-CEM
NCI-H226 = system: NCI-H226
SNB-75 = system: SNB-75
NCI-H460 = system: NCI-H460
TK-10 = system: TK-10
KM-20L2 = system: KM-20L2
RPMI-8226 = system: RPMI-8226
COLO 205 = system: COLO 205
MCF7 = system: MCF7
T47D = system: T47D
HCT-15 = system: HCT-15
PC-3 = system: PC-3
SNB-78 = system: SNB-78
BT-549 = system: BT-549
MDA-MB-435 = system: MDA-MB-435
NCI/ADR-RES = system: NCI/ADR-RES
MDA-MB-231 = system: MDA-MB-231
Hs-578T = system: Hs-578T
DU-145 = system: DU-145
XF498 = system: XF498
MDA-N = system: MDA-N

`COc1ccc(CN2C(=O)C(Cc3cc(OC)c(OC)c(C)c3OC)NC(=O)/C2=C/c2cc(OC)c(OC)c(C)c2OC)cc1` (configuration not stated) was tested, and the GI50 (UACC-62) was 33.7 µM (inactive), the GI50 (A549) was 37.1 µM (inactive) and the GI50 (HL-60) was 18.3 µM (inactive). The GI50 (HT-29) was 24.2 µM (inactive), the GI50 (SK-MEL-5) was 18 µM (inactive) and the GI50 (IGROV-1) was 53.2 µM (inactive). The GI50 (786-0) was 48.4 µM (inactive), the GI50 (HCC 2998) was 23.6 µM (inactive) and the GI50 (SF-539) was 45.6 µM (inactive). The GI50 (EKVX) was 48.1 µM (inactive), the GI50 (KM12) was 38.8 µM (inactive) and the GI50 (HOP-92) was 29 µM (inactive). The GI50 (OVCAR-3) was 26.1 µM (inactive), the GI50 (SN12C) was 27.5 µM (inactive) and the GI50 (MOLT-4) was 24.8 µM (inactive). The GI50 (UACC-257) was 37.5 µM (inactive), the GI50 (RXF 393) was 25.8 µM (inactive) and the GI50 (SW-620) was 33.9 µM (inactive). For the same compound, the GI50 (SF-295) was 43.5 µM (inactive), the GI50 (NCI-H23) was 43.1 µM (inactive) and the GI50 (LXFL 529) was 31.8 µM (inactive). For the same compound, the GI50 (SK-MEL-28) was 59.8 µM (inactive), the GI50 (UO-31) was 23.4 µM (inactive) and the GI50 (SR) was 20.3 µM (inactive). For the same compound, the GI50 (DLD-1) was 33 µM (inactive), the GI50 (SK-OV-3) was 34 µM (inactive) and the GI50 (SK-MEL-2) was 19.3 µM (inactive). The GI50 (HOP-62) was 50.9 µM (inactive), the GI50 (SF-268) was 51.6 µM (inactive) and the GI50 (HCT-116) was 26.4 µM (inactive). For the same compound, the GI50 (DMS-114) was 33.2 µM (inactive), the GI50 (ACHN) was 31.7 µM (inactive) and the GI50 (A498) was 49.4 µM (inactive). The GI50 (K562) was 33 µM (inactive), the GI50 (OVCAR-4) was 30.6 µM (inactive) and the GI50 (Malme-3M) was 22.6 µM (inactive). For the same compound, the GI50 (M14) was 32.1 µM (inactive), the GI50 (OVCAR-8) was 32.1 µM (inactive) and the GI50 (DMS-273) was > 10 µM (inactive). For the same compound, the GI50 (HOP-18) was 26.1 µM (inactive), the GI50 (RXF 631) was 43 µM (inactive) and the GI50 (NCI-H522) was 18.5 µM (inactive). The GI50 (U-251) was 37.2 µM (inactive), the GI50 (LOX IMVI) was 41.8 µM (inactive) and the GI50 (OVCAR-5) was 44.9 µM (inactive). The GI50 (M19-MEL) was 19.3 µM (inactive), the GI50 (CCRF-CEM) was 27 µM (inactive) and the GI50 (NCI-H226) was 18.7 µM (inactive). The GI50 (SNB-75) was 33.5 µM (inactive), the GI50 (NCI-H460) was 9.98 µM (inactive) and the GI50 (TK-10) was 33.5 µM (inactive). The GI50 (KM-20L2) was 25 µM (inactive), the GI50 (RPMI-8226) was 28.3 µM (inactive) and the GI50 (COLO 205) was 22.8 µM (inactive).

For `CCN(CC)CCN1C(=O)c2c(c3c4cccc(Cl)c4n(C4OC(CO)C(OC)C(O)C4O)c3c3[nH]c4c(Cl)cccc4c23)C1=O` (configuration not stated), the GI50 (HT-29) was < 0.0189 µM (active), the GI50 (MCF7) was < 0.01 µM (active) and the GI50 (T47D) was 0.0212 µM (active). For the same compound, the GI50 (HCT-15) was 0.103 µM and 0.132 µM, the GI50 (PC-3) was < 0.0386 µM (active) and the GI50 (SNB-78) was 0.00101 µM (active). For the same compound, the GI50 (HOP-92) was < 34.4 nM (active) and < 24 nM (active), the GI50 (BT-549) was 0.175 µM (active) and the GI50 (MDA-MB-435) was 0.0147 µM (active). For the same compound, the GI50 (MOLT-4) was < 10 nM (active) and 17.6 nM (active), the GI50 (NCI/ADR-RES) was 0.169 µM (active) and the GI50 (SF-295) was < 0.0165 µM (active). For the same compound, the GI50 (LXFL 529) was < 0.0239 µM (active), the GI50 (MDA-MB-231) was 0.182 µM (active) and the GI50 (SR) was < 0.0137 µM (active). The GI50 (DLD-1) was 0.0918 µM (active), the GI50 (SK-MEL-2) was 42.8 nM (active) and 68.1 nM (active) and the GI50 (HCT-116) was < 0.0164 µM (active). For the same compound, the GI50 (DMS-114) was 0.0413 µM (active), the GI50 (Hs-578T) was 0.0379 µM (active) and the GI50 (DMS-273) was < 0.0178 µM (active). For the same compound, the GI50 (DU-145) was 0.0121 µM (active), the GI50 (HOP-18) was 0.00101 µM (active) and the GI50 (M19-MEL) was 0.0303 µM (active). The GI50 (CCRF-CEM) was < 0.0166 µM (active), the GI50 (XF498) was 0.0463 µM (active) and the GI50 (MDA-N) was 0.0111 µM (active). For the same compound, the GI50 (KM-20L2) was 0.773 µM (active).

From ChEMBL document CHEMBL1201862, “PubChem BioAssay data set” (2004)
